Data published in ChEMBL document CHEMBL3797049, “Development of a competitive binding assay for the Burkholderia cenocepacia lectin BC2L-A and structure activity relationship of natural and synthetic inhibitors” (Medchemcomm, 2016).
Activity calls are given as the source filed them. No cut-off for these calls is given here.

Columns and labels:
[1] = target: T1, Lectin (Burkholderia cenocepacia (strain ATCC BAA-245 / DSM 16553 / LMG 16656/ NCTC 13227 / J2315 / CF5610) (Burkholderia cepacia (strain J2315))) (UniProt B4EH87); experiment: Displacement of N-(fluorescein-5-yl)-N'-(alpha-D-mannopyranosyloxyethyl)-thiocarbamide from Burkholderia cenocepacia J2315 BC2L-A expressed in Escherichia coli BL21 (DE3) cells up to 666 uM incubated for 3 to 4 hrs by fluorescence polarization assay relative to control
T1 sequence (whole entry): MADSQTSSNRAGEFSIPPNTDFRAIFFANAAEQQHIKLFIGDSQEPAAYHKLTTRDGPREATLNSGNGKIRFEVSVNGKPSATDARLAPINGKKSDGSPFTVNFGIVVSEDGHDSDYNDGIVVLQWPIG

[2] = Displacement of N-(fluorescein-5-yl)-N'-(alpha-L-fucopyranosyl-O-ethyl)-thiocarbamide from Pseudomonas aeruginosa LecB expressed in Escherichia coli BL21 (DE3) cells up to 666 uM incubated for 6 hrs by fluorescence polarization assay
[3] = target: T2, Lectin (Burkholderia cenocepacia (strain ATCC BAA-245 / DSM 16553 / LMG 16656/ NCTC 13227 / J2315 / CF5610) (Burkholderia cepacia (strain J2315)), UniProt B4EH87); experiment: Displacement of N-(fluorescein-5-yl)-N'-(alpha-D-mannopyranosyloxyethyl)-thiocarbamide from Burkholderia cenocepacia J2315 BC2L-A expressed in Escherichia coli BL21 (DE3) cells incubated for 3 to 4 hrs by fluorescence polarization assay
T2 sequence (B4EH87 whole entry): T1 sequence (whole entry)

[4] = target: T2, Lectin (Burkholderia cenocepacia (strain ATCC BAA-245 / DSM 16553 / LMG 16656/ NCTC 13227 / J2315 / CF5610) (Burkholderia cepacia (strain J2315)), UniProt B4EH87); experiment: Binding affinity to Burkholderia cenocepacia J2315 BC2L-A expressed in Escherichia coli BL21 (DE3) cells by microcalorimetry
[5] = target: T2, Lectin (Burkholderia cenocepacia (strain ATCC BAA-245 / DSM 16553 / LMG 16656/ NCTC 13227 / J2315 / CF5610) (Burkholderia cepacia (strain J2315)), UniProt B4EH87); experiment: Binding affinity to Burkholderia cenocepacia J2315 BC2L-A expressed in Escherichia coli BL21 (DE3) cells by isothermal titration calorimetry
[6] = target: T2, Lectin (Burkholderia cenocepacia (strain ATCC BAA-245 / DSM 16553 / LMG 16656/ NCTC 13227 / J2315 / CF5610) (Burkholderia cepacia (strain J2315)), UniProt B4EH87); experiment: Binding affinity to Burkholderia cenocepacia J2315 BC2L-A expressed in Escherichia coli BL21 (DE3) cells

Structure (SMILES)	inhibition [1]	IC50 [3]	other results
C=CCO[C@H]1O[C@H](CO)[C@@H](OC)[C@H](O)[C@@H]1O	inactive		inhibition [2]: inactive
CO[C@H]1O[C@H]([C@H](O)CNC(=O)/C=C/c2ccccc2)[C@@H](O)[C@H](O)[C@@H]1O	inactive		
CO[C@@H]1O[C@@H](C)[C@@H](O)[C@@H](O)[C@@H]1O	inactive		
CO[C@H]1O[C@H]([C@@H](O)CNC(C)=O)[C@@H](O)[C@H](O)[C@@H]1O		116 µM	
CO[C@H]1O[C@H](CO)[C@@H](O)[C@H](O)[C@@H]1O		7 µM	Kd [4]: 2.7 µM
C[C@@H]1OC[C@@H](O)[C@H](O)[C@@H]1O	inactive		
CO[C@H]1O[C@@H](C)[C@@H](O)[C@@H](O)[C@@H]1O	inactive		
C[C@@H]1O[C@H](C)[C@@H](O)[C@H](O)[C@@H]1O	inactive		
CO[C@H]1O[C@H]([C@@H](O)CNS(=O)(=O)c2ccc(C)cc2)[C@@H](O)[C@H](O)[C@@H]1O		19.1 µM	
C=CCO[C@H]1O[C@H](CO)[C@@H](O)[C@H](OC)[C@@H]1O	56%		inhibition [2]: inactive
Cc1cc(=O)oc2cc(O[C@@H]3O[C@H](CO)[C@@H](O)[C@H](O)[C@@H]3O)ccc12		7.4 µM	
C=CCO[C@H]1O[C@H](CO)[C@@H](O)[C@H](O)[C@@H]1O		13.6 µM	
OC[C@H]1OC(O)[C@@H](F)[C@@H](O)[C@@H]1O (stereo not given in full)	inactive		inhibition [2]: inactive
CO[C@H]1OC(C(O)CO)C(O)C(O)C1O (stereo not given in full)			Kd [5]: 54 µM
OC[C@H]1OC(O)[C@@H](O)[C@@H](F)[C@@H]1O (stereo not given in full)	inactive		inhibition [2]: inactive
C[C@H](O)[C@@H](O)[C@@H](O)[C@H](O)C=O [L-FUCOSE]		498 µM	IC50 [6]: 2300 µM
Cc1cc(=O)oc2cc(O[C@H]3O[C@H](CO)[C@@H](O)[C@H](O)[C@@H]3O)ccc12		14.5 µM	
CO[C@H]1O[C@H]([C@@H](O)CNS(=O)(=O)c2c(C)cc(C)cc2C)[C@@H](O)[C@H](O)[C@@H]1O		13.8 µM	
CO[C@H]1O[C@H](CN)[C@@H](O)[C@H](O)[C@@H]1O	inactive		
CO[C@H]1O[C@H]([C@@H](O)CNC(=O)c2ccccc2)[C@@H](O)[C@H](O)[C@@H]1O		104 µM	
CO[C@H]1O[C@H]([C@H](O)CNC(=O)c2ccccc2)[C@@H](O)[C@H](O)[C@@H]1O	inactive		
CO[C@H]1O[C@H](CBr)[C@@H](O)[C@H](O)[C@@H]1O	inactive		
CO[C@H]1O[C@H](CCl)[C@@H](O)[C@H](O)[C@@H]1O	inactive		
CO[C@H]1O[C@H](CI)[C@@H](O)[C@H](O)[C@@H]1O	inactive		
C[C@@H]1O[C@H](CO)[C@@H](O)[C@H](O)[C@@H]1O		13 µM	
C[C@@H]1OC[C@@H](F)[C@H](O)[C@@H]1O	inactive		inhibition [2]: inactive
CO[C@H]1O[C@H]([C@@H](O)CNC(=O)/C=C/c2ccccc2)[C@@H](O)[C@H](O)[C@@H]1O		64 µM	
OC[C@H]1OC[C@@H](O)[C@@H](O)[C@@H]1O		2.9 µM	
